Columns and labels:
[1] = test system: Alternaria solani; assay: Alternaria solani/tomato/Preventive (Action against Alternaria on Tomato); type: in vivo; conditions: preventive spray, tomato plants cv. Roter Gnom, inoculated two days after application, assessed after 4 days, untreated controls infected over 80%, read-out: inhibit fungal infestation
Protocol: (§1) Alternaria solani/tomato/Preventive (Action against Alternaria on Tomato) 4 weeks old tomato plants cv. Roter Gnom are treated with the formulated test compound in a spray chamber. Two days after application tomato plants are inoculated by spraying a spore suspension on the test plants. After an incubation period of 4 days at 22° C./18° C. and 95% r. h. in a greenhouse the disease incidence is assessed.

[2] = test system: Botrytis cinerea; assay: Botrytis cinerea/tomato/preventive (Action against Botrytis on Tomato); type: in vivo; conditions: preventive spray, tomato plants cv. Roter Gnom, inoculated two days after application, assessed after 3 days, untreated controls infected over 80%, read-out: inhibit fungal infestation
Protocol: as §1, with “Botrytis cinerea/tomato/preventive (Action” for “Alternaria solani/tomato/Preventive (Action”, “against Botrytis” for “against Alternaria”, “of 3” for “of 4”, “at 20°” for “at 22° C./18°”

[3] = test system: Magnaporthe grisea (Pyricularia oryzae); assay: whole plant or invertebrate; type: in vivo; conditions: read-out: inhibit fungal infestation
[4] = test system: Septoria tritici; assay: Sentoria tritici/wheat/Preventive (Action against Septoria Leaf Spot on Wheat); type: in vivo; conditions: Zymoseptoria tritici, preventive spray, wheat plants cv. Riband, inoculated one day after application, assessed 16-18 days after inoculation, untreated controls infected over 80%, read-out: inhibits fungal infestation
Protocol: Sentoria tritici/wheat/Preventive (Action against Septoria Leaf Spot on Wheat) 2 weeks old wheat plants cv. Riband are treated with the formulated test compound in a spray chamber. One day after application wheat plants are inoculated by spraying a spore suspension (10^6 conidia/ml) on the test plants. After an incubation period of 1 day at 22° C./21° C. and 95% r. h. plants are kept at 22° C./21° C. and 70% r.h. in a greenhouse. The disease incidence is assessed 16-18 days after inoculation.

[5] = test system: Puccinia recondita; assay: Puccinia recondita/wheat/preventive (Action against Brown Rust on Wheat); type: in vivo; conditions: preventive spray, wheat plants cv. Arina, inoculated one day after application, assessed 11 days after inoculation, untreated controls infected over 80%, read-out: inhibits fungal infestation
Protocol: Puccinia recondita/wheat/preventive (Action against Brown Rust on Wheat) 1 week old wheat plants cv. Arina are treated with the formulated test compound in a spray chamber. One day after application wheat plants are inoculated by spraying a spore suspension (1×105 uredospores/ml) on the test plants. After an incubation period of 1 day at 20° C. and 95% r. h. plants are kept for 10 days 20° C./18° C. (day/night) and 60% r.h. in a greenhouse. The disease incidence is assessed 11 days after inoculation.

[6] = test system: Pyrenophora teres (Helminthosporium teres); assay: Pyrenophora teres (Helminthosporium teres)/barley/preventive (Action against Net Blotch on Barley); type: in vivo; conditions: preventive spray, barley plants cv. Regina, inoculated two days after application, assessed after 4 days, untreated controls infected over 80%, read-out: inhibit fungal infestation
Protocol: Pyrenophora teres (Helminthosporium teres)/barley/preventive (Action against Net Blotch on Barley) 1-week-old barley plants cv. Regina are treated with the formulated test compound in a spray chamber. Two days after application barley plants are inoculated by spraying a spore suspension (2.6×10^4 conidia/ml) on the test plants. After an incubation period of 4 days at 20° C. and 95% r. h. the disease incidence is assessed.

[7] = test system: Uncinula necator; assay: Uncinula necator/grape/preventive (Action against Powdery Mildew on Grape); type: in vivo; conditions: Erysiphe necator, preventive spray, grape seedlings cv. Gutedel, inoculated one day after application, assessed after 7 days, untreated controls infected over 80%, read-out: inhibit fungal infestation
Protocol: Uncinula necator/grape/preventive (Action against Powdery Mildew on Grape) 5 weeks old grape seedlings cv. Gutedel are treated with the formulated test compound in a spray chamber. One day after application grape plants are inoculated by shaking plants infected with grape powdery mildew above the test plants. After an incubation period of 7 days at 24° C./22° C. and 70% r. h. under a light regime of 14/10 h (light/dark) the disease incidence is assessed.

Structure (SMILES) | inhibition at 200 ppm [1] [%] | inhibition at 200 ppm [2] [%] | inhibition at 200 ppm [3] [%] | inhibition at 200 ppm [4] [%] | melting point [°C] | inhibition at 200 ppm [5] [%] | inhibition at 200 ppm [6] [%] | inhibition at 200 ppm [7] [%]
Fc1cc(F)c(-c2c(Cl)nnc(Cl)c2-c2cccc(Cl)c2)c(F)c1 [I.b. 198, 3,6-dichloro-4-(3-chloro-phenyl)-5-(2,4,6-trifluoro-phenyl)-pyridazine] | ≥ 80 | ≥ 80 | ≥ 80 | ≥ 80 | 138 to 140 |  |  | 
Fc1cc(F)c(-c2c(Cl)nnc(Cl)c2-c2cccc(Br)c2)c(F)c1 [I.c. 198, 3,6-dichloro-4-(3-bromo-phenyl)-5-(2,4,6-trifluoro-phenyl)-pyridazine] |  |  |  |  | 120 to 121 | ≥ 80 | ≥ 80 | 
Cc1cccc(-c2c(Cl)nnc(Cl)c2-c2c(F)cc(F)cc2F)c1 [I.d. 198, 3,6-dichloro-4-m-tolyl-5-(2,4,6-trifluoro-phenyl)-pyridazine] |  |  |  | ≥ 80 | 121 to 123 |  | ≥ 80 | 
Oc1nnc(O)c(-c2c(F)cc(F)cc2F)c1-c1cccc(C(F)(F)F)c1 [I.e.196, 4-(3-trifluoromethyl-phenyl)-5-(2,4,6-trifluoro-phenyl)-pyridazine-3,6-diol] |  |  |  |  | 259 to 260 |  |  | 
Fc1cc(F)c(-c2c(Cl)nnc(Cl)c2-c2cccc(C(F)(F)F)c2)c(F)c1 [I.e. 198, 3,6-dichloro-4-(3-trifluoromethyl-phenyl)-5-(2,4,6-trifluoro-phenyl)-pyridazine] |  | ≥ 80 |  |  | 117 to 119 |  |  | ≥ 80
Fc1ccc(-c2c(F)nnc(F)c2-c2c(F)cc(F)cc2F)cc1 [I.j. 197, 3,6-difluoro-4-(4-fluoro-phenyl)-5-(2,4,6-trifluoro-phenyl)-pyridazine] | ≥ 80 | ≥ 80 |  | ≥ 80 | 74 to 76 | ≥ 80 | ≥ 80 | 
Fc1ccc(-c2c(Cl)nnc(Cl)c2-c2c(F)cc(F)cc2F)cc1 [I.j. 198, 3,6-dichloro-4-(4-fluoro-phenyl)-5-(2,4,6-trifluoro-phenyl)-pyridazine] | ≥ 80 | ≥ 80 | ≥ 80 | ≥ 80 | 143 to 145 | ≥ 80 | ≥ 80 | ≥ 80
COc1nnc(Cl)c(-c2c(F)cc(F)cc2F)c1-c1ccc(F)cc1 [I.j. 199, 3-chloro-5-(4-fluoro-phenyl)-6-methoxy-4-(2,4,6-trifluoro-phenyl)-pyridazine] | ≥ 80 | ≥ 80 | ≥ 80 | ≥ 80 | 146 to 151 |  | ≥ 80 | ≥ 80
Oc1nnc(O)c(-c2c(F)cccc2Cl)c1-c1ccc(Cl)cc1 [I.k.076, 4-(4-chloro-phenyl)-5-(2-chloro-6-fluoro-phenyl)-pyridazine-3,6-diol] |  |  |  |  | 144 to 149 |  |  | 
Fc1cccc(Cl)c1-c1c(Cl)nnc(Cl)c1-c1ccc(Cl)cc1 [I.k.078, 3,6-dichloro-4-(2-chloro-6-fluoro-phenyl)-5-(4-chloro-phenyl)-pyridazine] |  |  |  |  | 144 to 145 |  |  | 
COc1nnc(Cl)c(-c2c(F)cccc2Cl)c1-c1ccc(Cl)cc1 [I.k.079, 3-chloro-4-(2-chloro-6-fluoro-phenyl)-5-(4-chloro-phenyl)-6-methoxy-pyridazine] |  |  |  |  | 137 to 141 |  |  | 
Oc1nnc(O)c(-c2c(F)cc(F)cc2F)c1-c1ccc(Cl)cc1 [I.k.196, 4-(4-chloro-phenyl)-5-(2,4,6-trifluoro-phenyl)-pyridazine-3,6-diol] |  |  |  |  | 158 to 164 |  |  | 
Fc1cc(F)c(-c2c(Cl)nnc(Cl)c2-c2ccc(Cl)cc2)c(F)c1 [I.k. 198, 3,6-dichloro-4-(4-chloro-phenyl)-5-(2,4,6-trifluoro-phenyl)-pyridazine] |  | ≥ 80 | ≥ 80 | ≥ 80 |  | ≥ 80 | ≥ 80 | ≥ 80
O=c1[nH][nH]c(=O)c(-c2c(F)cc(F)cc2F)c1-c1ccc(Br)cc1 [I.l.196, 4-(4-bromophenyl)-5-(2,4,6-trifluorophenyl)-1,2-dihydro-pyridazine-3,6-dione] |  |  |  |  | 272 to 274 |  |  | 
Fc1cc(F)c(-c2c(F)nnc(F)c2-c2ccc(Br)cc2)c(F)c1 [I.l. 197, 4-(4-bromophenyl)-3,6-difluoro-5-(2,4,6-trifluorophenyl)-pyridazine] | ≥ 80 |  | ≥ 80 | ≥ 80 | 132 to 133 | ≥ 80 | ≥ 80 | ≥ 80
Fc1cc(F)c(-c2c(Cl)nnc(Cl)c2-c2ccc(Br)cc2)c(F)c1 [I.l. 198, 4-(4-bromophenyl)-3,6-dichloro-5-(2,4,6-trifluorophenyl)-pyridazine] | ≥ 80 | ≥ 80 | ≥ 80 | ≥ 80 | 134 to 137 | ≥ 80 | ≥ 80 | 
Cc1ccc(-c2c(Cl)nnc(Cl)c2-c2c(F)cc(F)cc2F)cc1 [I.m. 198, 3,6-dichloro-4-p-tolyl-5-(2,4,6-trifluoro-phenyl)-pyridazine] | ≥ 80 | ≥ 80 |  | ≥ 80 |  | ≥ 80 | ≥ 80 | ≥ 80
COc1nnc(Cl)c(-c2c(F)cc(F)cc2F)c1-c1ccc(C)cc1 [I.m. 199, 3-chloro-6-methoxy-5-p-tolyl-4-(2,4,6-trifluoro-phenyl)-pyridazine] |  |  |  | ≥ 80 | 126 to 128 | ≥ 80 |  | 
CCc1ccc(-c2c(O)nnc(O)c2-c2c(F)cc(F)cc2F)cc1 [I.o.196, 4-(4-ethyl-phenyl)-5-(2,4,6-trifluoro-phenyl)-pyridazine-3,6-diol] |  |  |  |  | 278 to 289 |  |  | 
CCc1ccc(-c2c(OC)nnc(Cl)c2-c2c(F)cc(F)cc2F)cc1 [I.o. 199, 3-chloro-5-(4-ethyl-phenyl)-6-methoxy-4-(2,4,6-trifluoro-phenyl)-pyridazine] | ≥ 80 |  | ≥ 80 | ≥ 80 | 109 to 112 | ≥ 80 |  | ≥ 80
COc1ccc(-c2c(O)nnc(O)c2-c2c(F)cc(F)cc2F)cc1 [I.p.196, 4-(4-methoxy-phenyl)-5-(2,4,6-trifluoro-phenyl)-pyridazine-3,6-diol] |  |  |  |  | 287 to 294 |  |  | 
COc1ccc(-c2c(Cl)nnc(Cl)c2-c2c(F)cc(F)cc2F)cc1 [I.p. 198, 3,6-dichloro-4-(4-methoxy-phenyl)-5-(2,4,6-trifluoro-phenyl)-pyridazine] | ≥ 80 | ≥ 80 | ≥ 80 | ≥ 80 | 106 to 109 |  |  | ≥ 80
Fc1cc(F)c(-c2c(Cl)nnc(Cl)c2-c2ccc(Cl)c(Cl)c2)c(F)c1 [I.v. 198, 3,6-dichloro-4-(3,4-dichloro-phenyl)-5-(2,4,6-trifluoro-phenyl)-pyridazine] | ≥ 80 | ≥ 80 |  | ≥ 80 | 139 to 140 |  | ≥ 80 | 
